Assay results reported in ChEMBL document CHEMBL1158628, “Quinlobelane: a water-soluble lobelane analogue and inhibitor of VMAT2” (Bioorg Med Chem Lett, 2010).

Experiments:
[1] = molecular target: T1, Synaptic vesicular amine transporter (Rattus norvegicus, UniProt Q01827); assay: Inhibition of VMAT2-mediated [3H]dopamine uptake in rat synaptic vesicle membranes; type: cell membranes, Membrane
[2] = molecular target: T1, Synaptic vesicular amine transporter; assay: Displacement of [3H]DTBZ from VMAT2 in rat synaptic vesicle membranes after 30 mins by liquid scintillation counting; type: cell membranes, Membrane
[3] = Aqueous solubility in water; type: physicochemical

T1 sequence (Q01827 whole entry): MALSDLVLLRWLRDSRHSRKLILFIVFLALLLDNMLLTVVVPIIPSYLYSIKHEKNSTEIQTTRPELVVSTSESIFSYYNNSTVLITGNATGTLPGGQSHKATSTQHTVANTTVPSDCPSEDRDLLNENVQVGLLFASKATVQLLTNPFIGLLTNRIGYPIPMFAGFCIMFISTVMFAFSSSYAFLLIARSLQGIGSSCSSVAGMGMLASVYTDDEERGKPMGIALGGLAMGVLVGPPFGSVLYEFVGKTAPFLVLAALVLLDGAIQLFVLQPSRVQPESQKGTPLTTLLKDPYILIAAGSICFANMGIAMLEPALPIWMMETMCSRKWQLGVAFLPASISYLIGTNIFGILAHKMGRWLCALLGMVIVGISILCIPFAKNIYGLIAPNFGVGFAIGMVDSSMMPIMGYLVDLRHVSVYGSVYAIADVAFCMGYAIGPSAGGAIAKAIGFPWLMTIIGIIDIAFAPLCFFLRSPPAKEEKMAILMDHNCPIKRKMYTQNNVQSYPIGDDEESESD

SMILES	Ki [1] [µM]	Ki [2] [µM]	solubility [3] [µg/mL]
CN1[C@@H](CCc2ccc3ccccc3n2)CCC[C@H]1CCc1ccc2ccccc2n1	0.067	0.96	–
CN1[C@@H](CCc2c[nH]c3ccccc23)CCC[C@H]1CCc1c[nH]c2ccccc12	2.13	26	–
CN1[C@@H](CCc2ccncc2)CCC[C@H]1CCc1ccncc1	5.23	5.87	–
CN1[C@@H](CCc2ccccc2)CCC[C@H]1CCc1ccccc1.O=S(=O)(O)O	–	–	300
CN1[C@@H](CCc2cccnc2)CCC[C@H]1CCc1cccnc1	3.72	33.3	–
CN1[C@@H](CCc2ccnc3ccccc23)CCC[C@H]1CCc1ccnc2ccccc12.Cl [QUINLOBELANE]	0.051	2.64	≥ 20000
